Data published in patent US8304419B2, “Chemical compounds” (priority 2007, dated 2012).
Structures can show the parent of a compound that is named as a salt.

System: HIV wild type (WTRVA)
Assay: HeLa cell assay, wild type virus (WTRVA)
Assay type: cell-based, HIV-1
Parameters: scale not given here
Conditions: Human immunodeficiency virus 1, HeLa, HeLa cell assay; read-out: IC50 against WTRVA

Compound | IC50
C#Cc1cc(C#N)cc(Oc2c(Cl)ccc(CNC(=O)c3[nH]cnc3Cl)c2F)c1 [Example 310, 4-chloro-N-({4-chloro-3-[(3-cyano-5-ethynylphenyl)oxy]-2-fluorophenyl}methyl)-1H-imidazole-5-carboxamide] | < 10 nM
Cc1nc(Cl)c(C(=O)NCc2ccc(Br)c(Oc3cc(Cl)cc(C#N)c3)c2F)[nH]1 [Example 231, N-({4-bromo-3-[(3-chloro-5-cyanophenyl)oxy]-2-fluorophenyl}methyl)-4-chloro-2-methyl-1H-imidazole-5-carboxamide trifluoroacetate] | < 10 nM
C=Cc1ccc(CNC(=O)c2[nH]c(C)nc2Cl)c(F)c1Oc1cc(Cl)cc(C#N)c1 [Example 269, 4-Chloro-N-({3-[(3-chloro-5-cyanophenyl)oxy]-4-ethenyl-2-fluorophenyl}methyl)-2-methyl-1H-imidazole-5-carboxamide] | < 10 nM
N#Cc1cc(Oc2c(Cl)ccc(CNC(=O)c3[nH]cnc3Cl)c2F)cc(C2CC2)c1 [Example 152, 4-chloro-N-({4-chloro-3-[(3-cyano-5-cyclopropylphenyl)oxy]-2-fluorophenyl}methyl)-1H-imidazole-5-carboxamide] | < 10 nM
CC(C)c1cc(C#N)cc(Oc2c(Cl)ccc(CNC(=O)c3[nH]cnc3Cl)c2F)c1 [Example 159, 4-chloro-N-[(4-chloro-3-{[3-cyano-5-(1-methylethyl)phenyl]oxy}-2-fluorophenyl)methyl]-1H-imidazole-5-carboxamide] | < 10 nM
N#Cc1cc(Cl)cc(Oc2c(Br)ccc(CNC(=O)c3nc(N)[nH]c3Cl)c2F)c1 [Example 239, 2-amino-N-({4-bromo-3-[(3-chloro-5-cyanophenyl)oxy]-2-fluorophenyl}methyl)-4-chloro-1H-imidazole-5-carboxamide] | < 10 nM
COc1cc(C#N)cc(Oc2c(Cl)ccc(CNC(=O)c3[nH]c(N)nc3Cl)c2F)c1 [Example 366, 2-amino-4-chloro-N-[(4-chloro-3-{[3-cyano-5-(methyloxy)phenyl]oxy}-2-fluorophenyl)methyl]-1H-imidazole-5-carboxamide trifluoroacetate] | < 10 nM
N#Cc1cc(Cl)cc(Oc2c(Cl)ccc(Cn3cnc4nc[nH]c4c3=O)c2F)c1 [Example 368, 3-chloro-5-({6-chloro-2-fluoro-3-[(6-oxo-6,7-dihydro-1H-purin-1-yl)methyl]phenyl}oxy)benzonitrile trifluoroacetate] | < 10 nM
C=Cc1cc(C#N)cc(Oc2c(Cl)ccc(CNC(=O)c3[nH]c(C)nc3Cl)c2F)n1 [Example 272, 4-Chloro-N-({4-chloro-3-[(4-cyano-6-ethenyl-2-pyridinyl)oxy]-2-fluorophenyl}methyl)-2-methyl-1H-imidazole-5-carboxamide] | < 10 nM
N#Cc1cc(Cl)cc(Oc2c(C(F)F)ccc(CNC(=O)c3[nH]cnc3Cl)c2F)c1 [Example 252, 4-chloro-N-{[3-[(3-chloro-5-cyanophenyl)oxy]-4-(difluoromethyl)-2-fluorophenyl]methyl}-1H-imidazole-5-carboxamide] | < 10 nM
Cc1nc(Br)c(C(=O)NCc2cc(Br)c(Br)c(Oc3cc(Cl)cc(C#N)c3)c2F)[nH]1 [Example 234, 4-bromo-N-({4,5-dibromo-3-[(3-chloro-5-cyanophenyl)oxy]-2-fluorophenyl}methyl)-2-methyl-1H-imidazole-5-carboxamide trifluoroacetate] | < 10 nM
CCCc1cc(C#N)cc(Oc2c(Cl)ccc(CNC(=O)c3[nH]cnc3Cl)c2F)c1 [Example 151, 4-chloro-N-({4-chloro-3-[(3-cyano-5-propylphenyl)oxy]-2-fluorophenyl}methyl)-1H-imidazole-5-carboxamide] | < 10 nM
N#Cc1cc(Cl)cc(Oc2c(Br)ccc(CNC(=O)c3[nH]c(CO)nc3Cl)c2F)c1 [Example 241, N-({4-bromo-3-[(3-chloro-5-cyanophenyl)oxy]-2-fluorophenyl}methyl)-4-chloro-2-(hydroxymethyl)-1H-imidazole-5-carboxamide] | < 10 nM
C=CCc1cc(C#N)cc(Oc2c(Cl)ccc(Cn3cnc4nc[nH]c4c3=O)c2F)c1 [Example 373, 3-({6-chloro-2-fluoro-3-[(6-oxo-6,7-dihydro-1H-purin-1-yl)methyl]phenyl}oxy)-5-(2-propen-1-yl)benzonitrile] | < 10 nM
N#Cc1cc(Cl)cc(Oc2c(Cl)ccc(CNC(=O)c3[nH]c(N)nc3Br)c2F)c1 [Example 235, 2-amino-4-bromo-N-({4-chloro-3-[(3-chloro-5-cyanophenyl)oxy]-2-fluorophenyl}methyl)-1H-imidazole-5-carboxamide trifluoroacetate] | < 10 nM

Same assay, conditions: Human immunodeficiency virus 1, HeLa, HeLa-CD4-LTR-β-gal cells, wild type virus; read-out: WTRVA activity level

Compound | IC50
N#Cc1cc(Cl)cc(Oc2c(Cl)ccc(CNC(=O)c3cn[nH]c3)c2F)c1 [Example 100, N-({4-chloro-3-[(3-chloro-5-cyanophenyl)oxy]-2-fluorophenyl}methyl)-1H-pyrazole-4-carboxamide trifluoroacetate] | < 10 nM
N#Cc1cc(Cl)cc(Oc2c(Cl)ccc(CNC(=O)c3cc4cc(OCCN5CCOCC5)ccc4[nH]3)c2F)c1 [Example 103, N-({4-chloro-3-[(3-chloro-5-cyanophenyl)oxy]-2-fluorophenyl}methyl)-5-{[2-(4-morpholinyl)ethyl]oxy}-1H-indole-2-carboxamide] | < 10 nM
N#Cc1cc(Cl)cc(Oc2c(Cl)ccc(CNC(=O)c3cc4cccc(O)c4[nH]3)c2F)c1 [Example 32, N-({4-chloro-3-[(3-chloro-5-cyanophenyl)oxy]-2-fluorophenyl}methyl)-7-hydroxy-1H-indole-2-carboxamide] | 10 to 1000 nM
Cc1c(C(=O)NCc2ccc(Cl)c(Oc3cc(Cl)cc(C#N)c3)c2F)oc2ccccc12 [Example 48, N-({4-chloro-3-[(3-chloro-5-cyanophenyl)oxy]-2-fluorophenyl}methyl)-3-methyl-1-benzofuran-2-carboxamide trifluoroacetate] | 10 to 1000 nM
Cc1nn(-c2ccccc2)nc1C(=O)NCc1ccc(Cl)c(Oc2cc(Cl)cc(C#N)c2)c1F [Example 96, N-({4-chloro-3-[(3-chloro-5-cyanophenyl)oxy]-2-fluorophenyl}methyl)-5-methyl-2-phenyl-2H-1,2,3-triazole-4-carboxamide trifluoroacetate] | 10 to 1000 nM
N#Cc1cc(Cl)cc(Oc2c(Cl)ccc(CNC(=O)c3cnccn3)c2F)c1 [Example 87, N-({4-chloro-3-[(3-chloro-5-cyanophenyl)oxy]-2-fluorophenyl}methyl)-2-pyrazinecarboxamide trifluoroacetate] | < 10 nM
N#Cc1cc(Cl)cc(Oc2c(Cl)ccc(CNC(=O)c3cc4ccc(N)cc4[nH]3)c2F)c1 [Example 123, 6-amino-N-({4-chloro-3-[(3-chloro-5-cyanophenyl)oxy]-2-fluorophenyl}methyl)-1H-indole-2-carboxamide trifluoroacetate] | < 10 nM
N#Cc1cc(Cl)cc(Oc2c(Cl)ccc(CNC(=O)c3cc4ccc(C#N)cc4[nH]3)c2F)c1 [Example 79, N-({4-chloro-3-[(3-chloro-5-cyanophenyl)oxy]-2-fluorophenyl}methyl)-6-cyano-1H-indole-2-carboxamide trifluoroacetate] | < 10 nM
N#Cc1cc(Cl)cc(Oc2c(Cl)ccc(CNC(=O)c3csc(-c4ccncc4)n3)c2F)c1 [Example 88, N-({4-chloro-3-[(3-chloro-5-cyanophenyl)oxy]-2-fluorophenyl}methyl)-2-(4-pyridinyl)-1,3-thiazole-4-carboxamide trifluoroacetate] | 10 to 1000 nM
Cc1c(C(=O)NCc2ccc(Cl)c(Oc3cc(Cl)cc(C#N)c3)c2F)[nH]c2ccc(Cl)cc12 [Example 40, 5-chloro-N-({4-chloro-3-[(3-chloro-5-cyanophenyl)oxy]-2-fluorophenyl}methyl)-3-methyl-1H-indole-2-carboxamide] | 10 to 1000 nM
CN(Cc1ccc(Cl)c(Oc2cc(Cl)cc(C#N)c2)c1F)C(=O)c1[nH]cnc1Cl [Example 132, 4-chloro-N-({4-chloro-3-[(3-chloro-5-cyanophenyl)oxy]-2-fluorophenyl}methyl)-N-methyl-1′-imidazole-5-carboxamide trifluoroacetate] | < 10 nM
COC(=O)c1ccc(C(=O)NCc2ccc(Cl)c(Oc3cc(Cl)cc(C#N)c3)c2)cc1 [Example 11, Methyl 4-{[({4-chloro-3-[(3-chloro-5-cyanophenyl)oxy]phenyl}methyl)amino]carbonyl}benzoate] | > 1000 nM
COc1ccc2[nH]c(C(=O)NCc3ccc(Cl)c(Oc4cc(Cl)cc(C#N)c4)c3F)cc2c1 [Example 20, N-({4-chloro-3-[(3-chloro-5-cyanophenyl)oxy]-2-fluorophenyl}methyl)-5-(methyloxy)-1H-indole-2-carboxamide] | 10 to 1000 nM
CSc1nc(C(=O)NCc2ccc(Cl)c(Oc3cc(Cl)cc(C#N)c3)c2F)cn1C(c1ccccc1)(c1ccccc1)c1ccccc1 [Example 65, N-({4-chloro-3-[(3-chloro-5-cyanophenyl)oxy]-2-fluorophenyl}methyl)-2-(methylthio)-1-(triphenylmethyl)-1H-imidazole-4-carboxamide trifluoroacetate] | 10 to 1000 nM
N#Cc1cc(Cl)cc(Oc2c(Cl)ccc(CNC(=O)c3cc4cccc(N)c4[nH]3)c2F)c1 [Example 113, 7-amino-N-({4-chloro-3-[(3-chloro-5-cyanophenyl)oxy]-2-fluorophenyl}methyl)-1H-indole-2-carboxamide] | < 10 nM
CNCC(=O)Nc1ccc2[nH]c(C(=O)NCc3ccc(Cl)c(Oc4cc(Cl)cc(C#N)c4)c3F)cc2c1 [Example 119] | < 10 nM
N#Cc1cc(Cl)cc(Oc2c(Cl)ccc(CNC(=O)c3csnn3)c2F)c1 [Example 90, N-({4-chloro-3-[(3-chloro-5-cyanophenyl)oxy]-2-fluorophenyl}methyl)-1,2,3-thiadiazole-4-carboxamide] | < 10 nM
CN(C)CCOc1ccc2[nH]c(C(=O)NCc3ccc(Cl)c(Oc4cc(Cl)cc(C#N)c4)c3F)cc2c1 [Example 105, N-({4-chloro-3-[(3-chloro-5-cyanophenyl)oxy]-2-fluorophenyl}methyl)-5-{[2-(dimethylamino)ethyl]oxy}-1H-indole-2-carboxamide] | < 10 nM
